Legend:
[1] = system: purified mouse T cells; assay: ELISA quantification of depoted lipid conjugates per T cell; type: cell-based; conditions: for ng/mL (equivalent in solution): Table S1, estimated dose on depoted T cells; for # Ligands/T cell: Table S1, quantitation of cell surface TLR2 ligands by ELISA, depoted 10 μg/mL, 1 h; for fold increase in number of depoted molecules per T cell, 0.1 to 10 μg/mL depoting concentration: biotinylated ligand, cell lysate, streptavidin-HRP/TMB absorbance 450 nm, n = 3-4 independent samples
Description: (§1) Unless specified otherwise (in Figure 2), splenocytes, isolated B cells, or isolated T cells were incubated with CpG (5 μM), lipid-CpG (5 μM), Pam2CSK4 (10 μg/mL), or Pam3CSK4 (10 μg/mL) for 1 h in complete RPMI 1640 media supplemented with 10% fetal bovine serum. Splenocytes or T cells were then washed 3 times with PBS plus 1% bovine serum albumin to remove unbound ligand.
One million purified T cells were depoted with FAM-labeled lipid-CpG, biotinylated Pam2CSK4, or biotinylated Pam3CSK4 as described above, and then lysed with Glo lysis buffer (Promega) for 10 min at 25°C. Lysates were collected and plated onto Nunc MaxiSorp ELISA plates (Thermo). After 2 h of incubation at 25°C, FAM-labeled lipid-CpG was excited at 488 nm, and fluorescent emission at 520 nm was quantified by a microplate fluorescence reader. For Pam2CSK4 and Pam3CSK4 samples, horseradish peroxidase (HRP)-labeled streptavidin was added for 2 h incubation at 25°C, and then TMB substrate (Thermo) was added to observe changes in absorbance at 450 nm with a microplate spectrophotometer (BioTek).

[2] = system: bystander B cells (TLR2+ APCs); assay: Bystander B-cell activation by TLR2 ligand-depoted T cells; type: cell-based, mouse; conditions: for CD69 upregulation on B cells (fold MFI) / MHC II upregulation on B cells (fold MFI): T cells depoted 10 μg/mL 1 h, co-culture with B cells 2 days, MFI normalized to unstimulated B cells, n = 5-6 independent experiments; for CD69 expression, depoted vs same dose of soluble ligand / MHC II expression, depoted vs same dose of soluble ligand: soluble dose 10 ng/mL Pam2CSK4, 2 ng/mL Pam3CSK4; for B-cell activation by dose-matched soluble ligand: 10 ng/mL Pam2CSK4, 2 ng/mL Pam3CSK4
Description: as §1
Naïve or primed T cells were rested in complete RPMI 1640 media and supplemented with 10% FBS after depoting with Pam2CSK4 or Pam3CSK4 as described above. At selected time-points (0, 1, 2, 5, or 8 days post-depoting), T cells were washed and fixed with 4% paraformaldehyde (Sigma) for 15 min at 25°C. After washing 5 times with PBS + 1% BSA, at 1,000 × g for 5 min, T cells were cultured in complete RPMI 1640 media and supplemented with 10% FBS. Bystander B cells were added in co-cultures at a 1:1 B cell:T cell ratio. Naïve T cells without fixation were immediately cultured with bystander B cells. After 2 days of incubation at 37°C and 5% CO2, B-cell activation was measured by fluorescent staining for MHCII (clone M5/114.15.2; FITC) and CD69 (clone H1.2F3; PerCP/Cy5.5).

[3] = system: polyclonal T cells; assay: Cytokine quantification in T-cell supernatants by ELISA; type: cell-based, mouse; conditions: supernatants day 2, ELISA, αCD3/CD28 bead-stimulated T cells, n = 5
Description: (§2) Naïve T cells were labeled with 5 μM of carboxyfluorescein succinimidyl ester (CFSE, ThermoFisher). Labeled cells were cultured in RPMI 1640 media and supplemented with 10% FBS as well as αCD3/CD28 coated Dynabeads^TM (Thermo) at a 1:5 bead to T cell ratio after depoting of lipid-CpG, Pam2CSK4, and/or Pam3CSK4 ligands. Non-depoted T cells were treated with soluble lipid-CpG (5 μM), Pam2CSK4 (10 μg/mL), and/or Pam3CSK4 (10 μg/mL). Cell proliferation was measured by CFSE dilution after 3 days, and cell activation was measured by fluorescent staining for CD25 (clone PC61; PE). Cell proliferation index and division index were calculated using FlowJo LLC software. Proliferation index is defined as the total number of cell divisions divided by the number of divided cells, whereas division index is the total number of cell divisions divided by the number of total original cells ([24]). Paracrine-enhanced proliferation of bystander T cells was measured as described above, with αCD3/CD28 beads added at a 2:5 bead to T-cell ratio.
T-cell activation was analyzed by collecting supernatants on day 2 post-activation for IL-2, IL-4, and IFNγ quantification by ELISA per manufacturer's instructions (BioLegend).

[4] = stated as much higher than the input concentration; cited from earlier work
Description: Thus, multiple lipid tails are a key design parameter for membrane delivery, and may be a simple way to enhance delivery of cargo to plasma membranes. One explanation of lipid-mediated insertion of TLR2 lipid-ligands, i.e., Pam2CSK4 and Pam3CSK4, into plasma membr ...

[5] = system: CD4+ and CD8+ T cells; assay: T-cell activation assay (CFSE proliferation, αCD3/CD28 beads); type: cell-based, mouse; conditions: αCD3/CD28 beads 3 days, CFSE dilution
Description: as §2

[6] = system: depoted and bystander CD4+ and CD8+ T cells; assay: Paracrine-enhanced proliferation: depoted T cells co-cultured with bystander T cells; type: cell-based, mouse; conditions: αCD3/CD28 beads 3 days, n = 5
Description: as §2

[7] = co-culture with depoted T cells
[8] = co-culture with non-depoted T cells

Row | Substance | ng/mL (equivalent in solution) [1] [ng/mL] | # Ligands/T cell [1] | fold increase in number of depoted molecules per T cell, 0.1 to 10 μg/mL depoting concentration [1] [fold] | CD69 upregulation on B cells (fold MFI) [2] [fold] | MHC II upregulation on B cells (fold MFI) [2] [fold] | CD69 expression, depoted vs same dose of soluble ligand ([2]; 2 days co-culture) [fold] | MHC II expression, depoted vs same dose of soluble ligand ([2]; 2 days co-culture) [fold] | B-cell activation by dose-matched soluble ligand [2] | increase in IL-2 levels, depoted vs soluble ligand [3] [fold] | critical micelle concentration [4] [µg/mL] | MHC II expression, depoted vs 10 μg/mL of soluble ligand ([2]; 2 days co-culture) [fold] | CD8+ T-cell proliferation index, effect of depoting ([5]; Figure S5) | CD4+ T-cell division index, depoted vs soluble ligand ([5]; n = 3) [fold] | CD8+ T-cell division index, depoted vs soluble ligand ([5]; n = 3) [fold] | bystander CD4+ T-cell division index vs soluble ligand [6, 7] [fold] | bystander CD8+ T-cell division index vs soluble ligand [6, 7] [fold] | CD4+ T-cell division index of depoted cells vs soluble ligand [6, 8] [fold] | CD8+ T-cell division index of depoted cells vs soluble ligand [6, 8] [fold]
1 | Pam2CSK4 | 9.6 | 1.3E+07 | 130 | 3.8 | 19 | 2.2 | 5.3 | none of the dose-matched soluble Pam2CSK4 and Pam3CSK4 activated B cells | 2.7 | > 10 |  |  |  |  |  |  |  | 
2 | Pam3CSK4 | 1.8 | 2.0E+06 | 2.2 | 4.4 | 21 | 2.8 | 6.1 | none of the dose-matched soluble Pam2CSK4 and Pam3CSK4 activated B cells | 3.4 | > 10 | 1.5 | did enhance | 1.9 | 2.9 | 1.3 | 1.3 | 1.6 | 1.6

— publication PMC7212467, “Lipid-Mediated Insertion of Toll-Like Receptor (TLR) Ligands for Facile Immune Cell Engineering” (Frontiers in Immunology, 2020)
